The values that follow come from patent US12398097B2, “WDR5-MYC inhibitors” (Vanderbilt University, priority 2019, dated 2025).

In this assay the target is WDR5 (Homo sapiens, UniProt P61964). As to the kind of experiment: Competition-based fluorescence polarization anisotropy assay. The settings on record: binding to WDR5; displacement of FITC-labeled small molecule probe (analogous to Example J2 or HCH-25) or peptide probe FITC-AHx-SEEEIDVVSV; pH 6.0; Ki converted from IC50. Summed up: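 Competition fluorescence polarization anisotropy binding to WDR5 using a FITC-labeled peptide probe or a fluorescently labeled small-molecule probe. Buffer: 200 mM phosphate, 300 mM NaCl, 0.5 mM TCEP, 0.1% Chaps, pH 6.0. Displacement data were converted to Ki.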
A general note: Polarisation of emitted light reports the rotation of a fluorescent probe.
Consider `O=C(NCCO)c1cc(OC(F)(F)F)cc(NS(=O)(=O)c2cc(Br)ccc2O)c1O` [HCH-26, 3-((5-Bromo-2-hydroxyphenyl)sulfonamido)-2-hydroxy-N-(2-hydroxyethyl)-5-(trifluoromethoxy)benzamide], for which the Ki (as a rule, a dissociation constant, usually derived from enzyme kinetics or from competition with a known ligand) was 0.25 µM.
Compound `O=C(O)c1cc(OC(F)(F)F)cc(NS(=O)(=O)c2cc(Br)cc(CCCO)c2O)c1O` [HCH-27, 3-((5-Bromo-2-hydroxy-3-(3-hydroxypropyl)phenyl)sulfonamido)-2-hydroxy-5-(trifluoromethoxy)benzoic acid] had a Ki of 0.4 µM.
Next, `CCC(O)CNC(=O)c1cc(OC(F)(F)F)cc(NS(=O)(=O)c2cc(Br)cc(F)c2O)c1O` (stereo not drawn) [HCH-39, 3-((5-Bromo-3-fluoro-2-hydroxyphenyl)sulfonamido)-2-hydroxy-N-(2-hydroxybutyl)-5-(trifluoromethoxy)benzamide]: 0.32 µM.
With `CCc1cc(Br)cc(S(=O)(=O)Nc2cc(OC(F)(F)F)cc(C(=O)NCC(O)CC)c2O)c1O` (stereo not drawn) [HCH-40, 3-((5-Bromo-3-ethyl-2-hydroxyphenyl)sulfonamido)-2-hydroxy-N-(2-hydroxybutyl)-5-(trifluoromethoxy)benzamide] the figure was 0.35 µM; with `CCC(O)CNC(=O)c1cc(OC(F)(F)F)cc(NS(=O)(=O)c2cc(Br)cc(Cl)c2O)c1O` (stereo not drawn) [HCH-41, 3-((5-Bromo-3-chloro-2-hydroxyphenyl)sulfonamido)-2-hydroxy-N-(2-hydroxybutyl)-5-(trifluoromethoxy)benzamide], 0.23 µM.
Regarding `O=C(NCC(O)c1ccsc1)c1cc(OC(F)(F)F)cc(NS(=O)(=O)c2cc(Br)ccc2O)c1O` (stereo not drawn) [HCH-43, 3-((5-Bromo-2-hydroxyphenyl)sulfonamido)-2-hydroxy-N-(2-hydroxy-2-(thiophen-3-yl)ethyl)-5-(trifluoromethoxy)benzamide], the Ki worked out at 0.43 µM.
Next, `CC(O)(CNC(=O)c1cc(OC(F)(F)F)cc(NS(=O)(=O)c2cc(Br)ccc2O)c1O)C1CC1` (stereo not drawn) [HCH-44, 3-((5-Bromo-2-hydroxyphenyl)sulfonamido)-N-(2-cyclopropyl-2-hydroxypropyl)-2-hydroxy-5-(trifluoromethoxy)benzamide]: 0.43 µM.
As for `CCC(C)(O)CNC(=O)c1cc(OC(F)(F)F)cc(NS(=O)(=O)c2cc(Br)ccc2O)c1O` (stereo not drawn) [HCH-45, 3-((5-Bromo-2-hydroxyphenyl)sulfonamido)-2-hydroxy-N-(2-hydroxy-2-methylbutyl)-5-(trifluoromethoxy)benzamide], the Ki amounted to 0.44 µM.
With `CNC(=O)C(CO)NC(=O)c1cc(OC(F)(F)F)cc(NS(=O)(=O)c2cc(Br)ccc2O)c1O` (stereo not drawn) [HCH-46, 3-((5-Bromo-2-hydroxyphenyl)sulfonamido)-2-hydroxy-N-(3-hydroxy-1-(methylamino)-1-oxopropan-2-yl)-5-(trifluoromethoxy)benzamide] the figure was 0.45 µM; with `NC(=O)[C@H](CO)NC(=O)c1cc(OC(F)(F)F)cc(NS(=O)(=O)c2cc(Br)ccc2O)c1O` [HCH-47, (S)—N-(1-Amino-3-hydroxy-1-oxopropan-2-yl)-3-((5-bromo-2-hydroxyphenyl)sulfonamido)-2-hydroxy-5-(trifluoromethoxy)benzamide], 0.26 µM.
`NC(=O)C(NC(=O)c1cc(OC(F)(F)F)cc(NS(=O)(=O)c2cc(Br)ccc2O)c1O)c1ccccn1` (stereo not drawn) [HCH-49, N-(2-Amino-2-oxo-1-(pyridin-2-yl)ethyl)-3-((5-bromo-2-hydroxyphenyl)sulfonamido)-2-hydroxy-5-(trifluoromethoxy)benzamide] displayed a Ki of 0.32 µM.
With `CN1CCC(O)(CNC(=O)c2cc(OC(F)(F)F)cc(NS(=O)(=O)c3cc(Br)cc(Cl)c3O)c2O)CC1` [HCH-50, 3-((5-Bromo-3-chloro-2-hydroxyphenyl)sulfonamido)-2-hydroxy-N-((4-hydroxy-1-methylpiperidin-4-yl)methyl)-5-(trifluoromethoxy)benzamide] the figure was 0.21 µM.
